{"source": "patent US11564964B2", "about": "“Compositions and methods for the treatment of coronavirus infection” (priority 2021, dated 2023)", "key": {"[1]": {"system": "SARS-CoV-2 (hCoV-19/Egypt/NRC-3/2020 isolate)", "conditions": "for in vitro SARS-CoV-2 testing (activity in words): SARS CoV-2 infected Vero E6 cells; for activity against SARS CoV-2 (in words): (100 μg/mL)"}, "MTT cytotoxicity assay": {"assay": "MTT cytotoxicity assay", "format": "cell-based", "conditions": "African green monkey, Vero E6 cells, read-out: cytotoxicity IC50 against Vero E6 cells", "procedure": "Vero-E6 cells with the previously reported (MTT) method^34 were used to test the cytotoxic activity of the test compounds and extracts. In brief, the cells were plated in 96-well plates and incubated for 24 h at 37° C. in 5% CO2 (100 μL/well at a density of 3×10^5 cells/mL). The cells were then treated with different concentrations of extracts/the tested compounds in triplicates. The supernatant was discarded after another 24 h, and cell monolayers were washed three times with sterile 1× PBS. MTT solution was added to each well and then incubated at 37° C. for 4 h. The produced formazan crystals were dissolved with 200 μL of acidified isopropanol (0.04 M HCl in absolute isopropanol=0.073 mL HCL in 50 mL isopropanol). Thereafter, the absorbance of formazan solutions was measured at λmax 540 nm using a multi-well plate reader. The following equation was applied to calculate the percentage of cytotoxicity compared to the untreated cells:\n[formula] The produced plot of % cytotoxicity versus sample concentrations was then used to calculate the IC50s. Viral Inhibitory Concentration 50 (IC50) Determination"}, "SARS-CoV-2 mRNA": {"system": "SARS-CoV-2 mRNA", "assay": "Quantitative real time measurement of SARS-CoV-2 mRNA expression (TaqMan RT-PCR) in infected Vero E6 cells", "format": "cell-based", "conditions": "different concentrations, 24 h and 48 h post treatment, normalized to infected untreated cells", "procedure": "The RNA extraction of expressed SARS-CoV-2 mRNA in infected treated and untreated cell monolayers was performed using QlAamp Viral RNA Mini Kit according to manufacturer instructions. To assess the viral mRNA expression in infected/treated and infected/untreated Vero E6 cells, TaqMan Real-time RT-PCR assay was performed. Briefly, 100 ng of extracted RNA were mixed with TaqMan primers to quantify SARS-CoV-2 mRNA (targeting […]: HKU-ORF1b-nsp14F: 5′-[…]-3′ (SEQ ID NO: 1), HKU-ORF1b-nsp141P Taqman Probe: 5′-FAM-[…]-TAMRA-3′ (SEQ ID NO: 2), HKU-ORF1b-nsp14R: 5′-[…]-3′ (SEQ ID NO: 3) together with the other components of Verso 1-step RT-qPCR Kit plus Rox (Invitrogen) in recommended volumes (up to 50 μl reaction) and thermal protocol conditions.\nTo validate our in silico-derived hits, we evaluated their antiviral activity against the clinical SARS-CoV-2 viral isolate in Vero E6 cells. […] Afterwards, the SARS CoV-2 infected Vero E6 cells were incubated with each of the tested compounds at different concentrations. The antiviral activity was then evaluated by determining the viral copy numbers in the cell supernatant via qRT-PCR. […] The poor antiviral activity of other metabolites (>100 μg/mL) might be attributed to their high polarity that could hinder the permeability across the cell membrane^39."}, "[2]": {"system": "SARS-CoV-2 (hCoV-19/Egypt/NRC-3/2020 isolate)", "assay": "microbe, parasite or virus in culture", "conditions": "Severe acute respiratory syndrome coronavirus 2, Vero C1008, read-out: IC50, inhibition of SARS CoV-2 viral replication"}}}
{"compound": "O=c1cc(-c2ccc(O)cc2)oc2cc(O[C@@H]3O[C@H](CO)[C@@H](O)[C@H](O)[C@H]3O)cc(O)c12", "note": "[apigenin 7-O-glucoside]", "values": [{"measurement": "in vitro SARS-CoV-2 testing (activity in words)", "setting": "[1]", "result": "inactive"}]}
{"compound": "COc1ccc(C[C@H]2COC(=O)[C@@H]2Cc2ccc(O[C@@H]3O[C@H](CO)[C@@H](O)[C@H](O)[C@H]3O)c(OC)c2)cc1OC", "note": "[arctiin]", "values": [{"measurement": "IC50 at 24 h", "setting": "MTT cytotoxicity assay", "result": "> 50", "unit": "µg/mL"}, {"measurement": "in vitro SARS-CoV-2 testing (activity in words)", "setting": "[1]", "result": "inactive"}]}
{"compound": "O=c1c(O[C@@H]2O[C@H](CO)[C@@H](O)[C@H](O)[C@H]2O)c(-c2ccc(O)cc2)oc2cc(O)cc(O)c12", "note": "[astragalin]", "values": [{"measurement": "IC50 at 24 h", "setting": "MTT cytotoxicity assay", "result": "> 50", "unit": "µg/mL"}, {"measurement": "in vitro SARS-CoV-2 testing (activity in words)", "setting": "[1]", "result": "inactive"}]}
{"compound": "C=C1C(=O)O[C@@H]2/C=C(\\CO)CC/C=C(\\C)C[C@H](OC(=O)C(=C)[C@@H](O)CO)[C@@H]12", "note": "[cnicin]", "values": [{"measurement": "inhibitory effect on the viral mRNA", "setting": "SARS-CoV-2 mRNA", "result": "significant viral mRNA inhibition"}, {"measurement": "Si=CC50/IC50", "setting": "[1]; safety profile, Vero E6 / SARS CoV-2", "result": 70.3}, {"measurement": "IC50", "setting": "[2]", "result": 1.18, "unit": "µg/mL"}]}
{"compound": "O=c1cc(-c2ccc(O)c(O)c2)oc2cc(O)cc(O)c12", "note": "[luteolin]", "values": [{"measurement": "activity against SARS CoV-2 (in words)", "setting": "[1]", "result": "inactive"}]}
{"compound": "COc1cc(C[C@H]2COC(=O)[C@]2(O)Cc2ccc(O[C@@H]3O[C@H](CO)[C@@H](O)[C@H](O)[C@H]3O)c(OC)c2)ccc1O", "note": "[nortracheloside]", "values": [{"measurement": "in vitro SARS-CoV-2 testing (activity in words)", "setting": "[1]", "result": "inactive"}]}
{"compound": "CC[C@H](CC[C@@H](C)[C@H]1CC[C@H]2[C@@H]3CC=C4C[C@@H](O[C@@H]5O[C@H](CO)[C@@H](O)[C@H](O)[C@H]5O)CC[C@]4(C)[C@H]3CC[C@]12C)C(C)C", "note": "[sitogluside]", "values": [{"measurement": "activity against SARS CoV-2 (in words)", "setting": "[1]", "result": "inactive"}]}
